The test system of data set [1] is Cor.At® cells (mouse embryonic stem cell derived cardiomyocytes). The data set can be described thus: In vitro cytotoxicity on Cor.At cardiomyocytes (neutral red uptake). The note with it: 48 h. Format: cell-based. The procedure: (§1) FIG. 5. In vitro cellular toxicity of PhAc-ALGP-Dox and Doxorubicin on Cor.At® cells (mouse embryonic stem cell derived cardiomyocytes). As non-specific control, the test was also performed on inactivated mouse embryonic fibroblasts (MEF). Cells were cultured for 48 h in the presence of drugs and a neutral red uptake test was performed to determine cell viability. Results represent the cytotoxicity curves. The IC50 values were calculated from the cytotoxicity curves using the Prism GraphPad software 5.0.
(§2) The in vitro cardiotoxicity test was carried out in a relevant and predictive in vitro model for cardiac safety screening in early lead optimization using mouse embryonic stem cell derived cardiomyocytes (Cor.At®, Axiogenesis (Germany)). Cor.At® cardiomyocytes provide a standardized, homogenous and reproducible cell system for the in vitro classification of a compound's cardio-cytotoxic potential. After incubation with test compounds, the neutral red uptake test was used to determine effects which directly affect the viability and integrity of cardiac cells when compared to a non-specific reference cell type, e.g. mouse fibroblasts (MEF).

Data set [2] can be described thus: in vivo. The note with it: female, OF-1, mouse, ip, 92 umol/kg.
Protocol: Time evolution of blood concentration of PhAc-ALGP-Dox and its metabolites (A) or of Doxorubicin (B) after intraperitoneal injection to OF-1 female wild type mice at the equimolar dose of 92 μmol/kg. Results represent the mean concentration±SD (n=3).
Pharmacokinetic tissue distribution studies were performed using OF-1 mice. Doxorubicin and PhAc-ALGP-Dox were dissolved in saline at the dose of 9.2 mM and administered to mice by intraperitoneal route (10 μL/g, 6 mice per group). At different time points after drug administration (5 min, 30 min, 1 h, 4 h, and 24 h), blood samples were collected from the lateral tail vein of three mice using EDTA-coated microtubes (Starsted). After 24 h, 3 mice per group were sacrificed by cervical dislocation and hearts were collected. They were incised and rinsed carefully in phosphate buffer saline (to eliminate blood in the cardiac cavities), dried on paper and frozen in liquid nitrogen. They were stored until analysis. The hearts were homogenized with an Ultraturrax homogenizer in 1.5 mL water. The protein concentration was measured using the microBCA protein assay (Pierce). The drug tissue quantification was made by HPLC after extraction: 150 μL of acetonitrile was added to the 50 μL samples. Samples were vortexed and centrifuged for 10 min at 13 000 rpm at room temperature. Supernatant was collected. Samples were buffered by addition of 200 mM formiate buffer pH 4.5 (1 V sample supernatant+3 V buffer) before HPLC analysis (fluo detection ex=235 nm em=560 nm).
The subject of data set [3] is LoVo colon carcinoma human xenografts. The data set can be described thus: Efficacy after repeated ip injections (2Q1D5), LoVo xenograft. Format: in vivo, NMRI nude mice. To be noted: for TGD: 190 to 1,000 mm^3. As to the method: FIG. 9. Efficacy study of PhAc-ALGP-Dox in comparison with free Doxorubicin in NMRI nude mice bearing LoVo colon carcinoma human xenografts. Drugs or controls were administered by the i.p. route twice a day for five consecutive days (arrows). The mice receiving a constant volume (10 μL/g) of either saline (-●-) or of the different dosing solutions: PhAc-ALGP-Dox 25 μmol/kg (*), 35 μmol/kg (◯) and 50 μmol/kg (+); Dox 0.5 μmol/kg (▪), 1 μmol/kg (▴) and 2 μmol/kg (×).
The efficacy of PhAc-ALGP-Dox was assessed using athymic mice (nude/nude NMRI) carrying ectopic xenograft of human LoVo colon carcinoma or of MX-1 mammary carcinoma in comparison with free Doxorubicin. Tumors were established by a subcutaneous implantation of cells (10^7 cells) in the right flank of 6 weeks old female NMRI nude mice (Harlan). Treatments were administered when the tumors reached a size of 150-200 mm^3 (measured using a caliper and calculated with the following formula: […]). Animals were randomly assigned to groups of 4 to-6 animals. […] Compounds were delivered by bolus intraperitoneal injection (ip) at 10 μl/g. During the course of the experiment, clinical signs, body weight and tumor volume were controlled twice a week. Results are presented as the evolution of mean tumor volume as a function of time. Optimal T/C (ratio of mean tumor volume of treated versus control mice) values and TGD (tumor growth delay in reaching 1000 mm^3) were used as a measure of treatment efficacy. […] A statistical analysis was performed at day 22 using the Mann Whitney t test of the Graph Pad Prism 5.0 software.

In data set [4] the test system is LoVo colon carcinoma xenografts. Description: Activation at the tumor site after single iv bolus, LoVo xenograft. The note with it: 24 hours after single iv injection, 15-620 μmol/kg. Format: in vivo, NMRI nude mice. As to the method:
FIG. 6. PhAc-ALGP-Dox was administered at increasing concentrations (15, 35, 50, 100, 200, 300, 460, 620 μmol/kg) by intravenous injection to NMRI nude mice bearing LoVo colon carcinoma xenografts (3 mice per group). After 24 hours, mice were sacrificed and tumors were collected. Doxorubicin tumor concentration was determined after extraction by HPLC analysis. Results represent the average Doxorubicin tumor concentration (pmol/mg protein)±SD.
Drugs or controls were administered four weeks after subcutaneous implantation of the xenograft. […] The PhAc-ALGP-Dox conjugate was dissolved in saline at increasing doses (1.5, 3.5, 5, 10, 20, 30, 46, and 62 mM). […] Twenty-four hours after injection, mice were sacrificed by cervical dislocation and tumors were collected, rinsed in phosphate buffer saline and homogenized. An extraction of drugs from tumor homogenates was performed with acetonitrile and Doxorubicin present in tumors was quantified by HPLC analysis.

For data set [5], the target named is T1, FAP (Homo sapiens, UniProt Q12884).
T1 sequence (Q12884 1-760): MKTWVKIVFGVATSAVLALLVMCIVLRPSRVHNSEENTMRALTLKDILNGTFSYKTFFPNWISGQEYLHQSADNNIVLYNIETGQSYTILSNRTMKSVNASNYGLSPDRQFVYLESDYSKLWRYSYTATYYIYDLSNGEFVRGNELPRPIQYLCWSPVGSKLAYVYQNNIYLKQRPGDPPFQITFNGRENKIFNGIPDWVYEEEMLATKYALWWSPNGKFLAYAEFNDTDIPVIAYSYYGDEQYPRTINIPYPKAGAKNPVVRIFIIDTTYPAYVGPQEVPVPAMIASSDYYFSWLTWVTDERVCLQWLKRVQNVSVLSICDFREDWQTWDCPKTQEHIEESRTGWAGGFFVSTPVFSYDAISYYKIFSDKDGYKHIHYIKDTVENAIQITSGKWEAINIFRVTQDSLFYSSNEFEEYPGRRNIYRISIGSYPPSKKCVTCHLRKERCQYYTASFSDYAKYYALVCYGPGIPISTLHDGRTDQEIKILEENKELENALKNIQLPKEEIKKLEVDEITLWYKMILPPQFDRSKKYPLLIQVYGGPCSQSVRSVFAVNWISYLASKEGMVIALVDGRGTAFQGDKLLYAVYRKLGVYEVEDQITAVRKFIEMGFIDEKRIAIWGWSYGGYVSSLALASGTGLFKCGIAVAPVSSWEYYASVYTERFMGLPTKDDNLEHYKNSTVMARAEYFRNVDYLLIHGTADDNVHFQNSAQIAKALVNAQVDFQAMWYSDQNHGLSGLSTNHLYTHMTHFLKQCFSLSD
The data set can be described thus: Reactivation assay with purified FAP. Type of data set: biochemical. The procedure:
TOP (recombinant human thimet oligopeptidase, R&D systems, Ref 3439-ZN) was diluted at 10 nM in a solution of 50 mM Tris-HCl pH 7.4/0.5M NaCl/0.1M DTT. CD26 and FAP were diluted at 1 μg/mL in a Tris-HCl pH 7.5 buffer. Reactions were initiated by addition of 50 μM of each compound to enzymes solutions (1 V enzyme solution+1 V 100 μM drug solution). Samples were incubated for 0, 1, or 3 hours at 37° C. in a water bath in the presence of purified enzymes. Fifty μL of sample were collected at each time point and processed as described above for human plasma. Activation of Suc-βALAL-dox was tested in parallel as a reference.

Data set [6] in a line: In vitro cytotoxicity on control fibroblasts (neutral red uptake). The note with it: mouse, inactivated mouse embryonic fibroblasts (MEF), 20 μg/ml. Type of data set: cell-based, mouse. As to the method:
as §1, §2

Here are results for two compounds from patent publication US10076576B2, “Minimally toxic prodrugs” (priority 2012, dated 2018).

Where “and” joins values, the source holds several entries; their conditions need not be identical. Identical values can stand only once. Entries after “also recorded” stand apart in the source; their conditions may differ.

As a reminder, the AUC is the area under the concentration-time curve, a measure of exposure. A high value points to high exposure. As a reminder, the viability is a read-out of living cells in per cent, often relative to untreated cells.

Take `COc1cccc2c1C(=O)c1c(O)c3c(c(O)c1C2=O)C[C@@](O)(C(=O)CO)C[C@@H]3O[C@H]1C[C@H](N)[C@H](O)[C@H](C)O1` [Doxorubicin, reference compound]: in data set [1] (0.2 μg/ml), the “viability of Cor.At cardiomyocytes” value was 67%. For the same compound, in data set [1] (20 μg/ml and 2 μg/ml), the “toxic effect on Cor.At cardiomyocytes (in words)” value is given as “severe toxic effect”. The same compound showed an exposure (AUC) in data set [2] of 70.3 µM·h. Also, the figures for the “TGD” value in data set [3] (0.5 μmol/kg ip 2Q1D5), in data set [3] (1 μmol/kg ip 2Q1D5) and in data set [3] (2 μmol/kg ip 2Q1D5) were 1 days, 0 days and 6 days, respectively. In addition, the “TGI [% (day)]” value in data set [3] (1 μmol/kg ip 2Q1D5) is “no antitumor activity and no”; in data set [3] (2 μmol/kg ip 2Q1D5, day 22, listed as Dox), 45%.

With `COc1cccc2c1C(=O)c1c(O)c3c(c(O)c1C2=O)CC(O)(C(=O)CO)CC3OC1CC(NC(=O)C2CCCN2C(=O)CNC(=O)C(CC(C)C)NC(=O)C(C)NC(=O)CP(=O)(O)O)C(O)C(C)O1` (stereo not shown) [PhAc-ALGP-Dox, PhAc-ALGP-doxorubicin], the “toxic effect (in words)” value in data set [1] (all concentrations lower than 20 μg/ml) was “did not show any toxic effect”. Also, the AUC in data set [2] amounted to 44.2 µM·h. Besides, the “injected dose at which Dox tumor concentration reaches a plateau” value in data set [4] is 200 µmol/kg. Also, the “hydrolysis by FAP (in words)” value in data set [5] is recorded as “Neither CD26 nor FAP hydrolized; also recorded: did not hydrolyze”. For the same compound, the “TGD” value stood at 5 days in data set [3] (25 μmol/kg ip 2Q1D5), 13 days in data set [3] (35 μmol/kg ip 2Q1D5) and 17 days in data set [3] (50 μmol/kg ip 2Q1D5). Further, the “TGI [% (day)]” value in data set [3] (25 μmol/kg ip 2Q1D5, day 22) was 32 (22) %; in data set [3] (35 μmol/kg ip 2Q1D5, day 22), 60 (22) %; in data set [3] (50 μmol/kg ip 2Q1D5, day 22), 65% and 65 (22) %. For the same compound, in data set [6], the viability at 48 h, 20 µg/mL came out at 81%.
